The text below walks through data of patent US12110305B2, “Prodrugs of phosphonamide nucleotide analogues and their pharmaceutical use” (priority 2020, dated 2024).

Molecules are shown by their SMILES. pEC50: −log10 of the molar value. Where only a bound is given, the exact number is not on record here.

This assay deals with HIV-1 (IIIB). The assay is described as follows: Antiviral (HIV) assay in MT-4 cells. In kind it is cell-based. The settings on record: Human immunodeficiency virus 1, MT4, 120 h; HIV-1 IIIB in MT-4 cells, 5 days incubation, Cell Titer Glo; average of at least two independent experiments. How it is done:
Example 104: Antiviral (HIV) Assay in MT-4 Cells
Compounds were tested in a high-throughput 384-well assay format for their ability to inhibit the replication of HIV-1 (IIIB) in MT-4 cells. Compounds were serially diluted (1:3) in DMSO on 384-well polypropylene plates and further diluted 200-fold into complete RPMI media (10% FBS, 1% P/S) using the Biotek Micro Flow and Labcyte ECHO acoustic dispenser. Each plate contained up to 8 test compounds, with negative (no drug) and positive (5 μM AZT) controls. MT-4 cells were pre-treated with 10 μL of either RPMI (mock-infected) or a fresh 1:250 dilution of HIV-1 IIIB concentrated virus stock. Infected and uninfected MT-4 cells were further diluted in complete RPMI media and added to each plate using a Micro Flow dispenser. After 5 days incubation in a humidified and temperature-controlled incubator (37° C.), Cell Titer Glo (Promega) was added to the assay plates and chemiluminescence read using an Envision plate-reader. EC50 values were defined as the compound concentration that causes a 50% decrease in luminescence signal and were calculated using a sigmoidal dose-response model to generate curve fits and are shown in Table 1.
(Cellular ATP, detected with luciferase, serves as a proxy for viable cell number.)
The term pEC50 denotes −log10 of the EC50, conventionally taken in molar units. A lower pEC50 goes with a large EC50. Take `CCCCCCOC(=O)C(C)(C)NP(=O)(CO[C@H](C)Cn1cnc2c(NC(=O)CCC)ncnc21)NC(C)(C)C(=O)OCCCCCC` [Example 29, Dihexyl 2,2′-(((((1-(6-butyramido-9H-purin-9-yl)propan-2-yl)oxy)methyl)phosphoryl)bis(azanediyl))(R)-bis(2-methylpropanoate)]: the pEC50 was 7.80.

Consider `CCCCCCCCCCCC(=O)Nc1ncnc2c1ncn2C[C@@H](C)OCP(=O)(NC(C)(C)C(=O)OCCCCCC)NC(C)(C)C(=O)OCCCCCC` [Example 30, Dihexyl 2,2′-(((((1-(6-dodecanamido-9H-purin-9-yl)propan-2-yl)oxy)methyl)phosphoryl)bis(azanediyl))(R)-bis(2-methylpropanoate)], for which the pEC50 was 7.17.

Molecule `CCCCCCOC(=O)C(C)(C)NP(=O)(CO[C@H](C)Cn1cnc2c(NC(=O)OCCC)ncnc21)NC(C)(C)C(=O)OCCCCCC` [Example 31, Dihexyl 2,2′-(((((1-(6-((propoxycarbonyl)amino)-9H-purin-9-yl)propan-2-yl)oxy)methyl)phosphoryl)bis(azanediyl))(R)-bis(2-methylpropanoate)] showed a pEC50 of less than 6.30.

`CCCCCCOC(=O)C(C)(C)NP(=O)(CO[C@H](C)Cn1cnc2c(NC(=O)OCCCCC)ncnc21)NC(C)(C)C(=O)OCCCCCC` [Example 32, Dihexyl 2,2′-(((((1-(6-(((pentyloxy)carbonyl)amino)-9H-purin-9-yl)propan-2-yl)oxy)methyl)phosphoryl)bis(azanediyl))(R)-bis(2-methylpropanoate)] had a pEC50 of less than 6.30.

Molecule `CCCCCCOC(=O)C(C)(C)NP(=O)(CO[C@H](C)Cn1cnc2c(NC(=O)OCc3oc(=O)oc3C)ncnc21)NC(C)(C)C(=O)OCCCCCC` [Example 33, Dihexyl 2,2′-(((((1-(6-((((5-methyl-2-oxo-1,3-dioxol-4-yl)methoxy)carbonyl)amino)-9H-purin-9-yl)propan-2-yl)oxy)methyl)phosphoryl)bis(azanediyl))(R)-bis(2-methylpropanoate)] showed a pEC50 of 8.15.

`C[C@H](Cn1cnc2c(N)ncnc21)OCP(=O)(NC(C)(C)C(=O)OC1CCCC1)NC(C)(C)C(=O)OC1CCCC1` [Example 34, Dicyclopentyl 2,2′-(((((1-(6-amino-9H-purin-9-yl)propan-2-yl)oxy)methyl)phosphoryl)bis(azanediyl))(R)-bis(2-methylpropanoate)] showed a pEC50 of 8.52.

`CC(C)COC(=O)C(C)(C)NP(=O)(CO[C@H](C)Cn1cnc2c(N)ncnc21)NC(C)(C)C(=O)OCC(C)C` [Example 35, Diisobutyl 2,2′-(((((1-(6-amino-9H-purin-9-yl)propan-2-yl)oxy)methyl)phosphoryl)bis(azanediyl))(R)-bis(2-methylpropanoate)] had a pEC50 of 8.30.

For the molecule `CCCOC(=O)C(C)(C)NP(=O)(CO[C@H](C)Cn1cnc2c(N)ncnc21)NC(C)(C)C(=O)OCCC` [Example 36, Dipropyl 2,2′-(((((1-(6-amino-9H-purin-9-yl)propan-2-yl)oxy)methyl)phosphoryl)bis(azanediyl))(R)-bis(2-methylpropanoate)], the pEC50 was 7.85.

Regarding `C[C@H](Cn1cnc2c(N)ncnc21)OCP(=O)(NC(C)(C)C(=O)OCC1CCC1)NC(C)(C)C(=O)OCC1CCC1` [Example 37, Bis(cyclobutylmethyl) 2,2′-(((((1-(6-amino-9H-purin-9-yl)propan-2-yl)oxy)methyl)phosphoryl)bis(azanediyl))(R)-bis(2-methylpropanoate)], the pEC50 is 8.40.

`CCCCOC(=O)C(C)(C)NP(=O)(CO[C@H](C)Cn1cnc2c(N)ncnc21)NC(C)(C)C(=O)OCCCC` [Example 38, Dibutyl 2,2′-(((((1-(6-amino-9H-purin-9-yl)propan-2-yl)oxy)methyl)phosphoryl)bis(azanediyl))(R)-bis(2-methylpropanoate)] showed a pEC50 of 8.00.

`CCCCCCCCOC(=O)C(C)(C)NP(=O)(CO[C@H](C)Cn1cnc2c(N)ncnc21)NC(C)(C)C(=O)OCCCCCCCC` [Example 39, Dioctyl 2,2′-(((((1-(6-amino-9H-purin-9-yl)propan-2-yl)oxy)methyl)phosphoryl)bis(azanediyl))(R)-bis(2-methylpropanoate)] gave a pEC50 of 7.62.

The molecule `C[C@H](Cn1cnc2c(N)ncnc21)OCP(=O)(NC(C)(C)C(=O)OC1CCCCC1)NC(C)(C)C(=O)OC1CCCCC1` [Example 40, Dicyclohexyl 2,2′-(((((1-(6-amino-9H-purin-9-yl)propan-2-yl)oxy)methyl)phosphoryl)bis(azanediyl))(R)-bis(2-methylpropanoate)] showed a pEC50 of 8.22.

For `C[C@H](Cn1cnc2c(N)ncnc21)OCP(=O)(NC(C)(C)C(=O)OC1CC2(CCC2)C1)NC(C)(C)C(=O)OC1CC2(CCC2)C1` (stereo partly drawn) [Example 41, Di(spiro[3.3]heptan-2-yl) 2,2′-(((((1-(6-amino-9H-purin-9-yl)propan-2-yl)oxy)methyl)phosphoryl)bis(azanediyl))(R)-bis(2-methylpropanoate)], the pEC50 was 8.52.

In the case of `C[C@H](Cn1cnc2c(N)ncnc21)OCP(=O)(NC(C)(C)C(=O)OC1CC(C)(C)C1)NC(C)(C)C(=O)OC1CC(C)(C)C1` [Example 42, Bis(3,3-dimethylcyclobutyl) 2,2′-(((((1-(6-amino-9H-purin-9-yl)propan-2-yl)oxy)methyl)phosphoryl)bis(azanediyl))(R)-bis(2-methylpropanoate)], the pEC50 was 8.70.

On to `CC(C)OC(=O)C(C)(C)NP(=O)(CO[C@H](C)Cn1cnc2c(N)ncnc21)NC(C)(C)C(=O)OC(C)C` [Example 43, Diisopropyl 2,2′-(((((1-(6-amino-9H-purin-9-yl)propan-2-yl)oxy)methyl)phosphoryl)bis(azanediyl))(R)-bis(2-methylpropanoate)], for which the pEC50 is 7.70.

Regarding `C[C@H](Cn1cnc2c(N)ncnc21)OCP(=O)(NC(C)(C)C(=O)OC1CCC(C)(C)CC1)NC(C)(C)C(=O)OC1CCC(C)(C)CC1` [Example 44, Bis(4,4-dimethylcyclohexyl) 2,2′-(((((1-(6-amino-9H-purin-9-yl)propan-2-yl)oxy)methyl)phosphoryl)bis(azanediyl))(R)-bis(2-methylpropanoate)], the pEC50 is 8.15.

`C[C@H](Cn1cnc2c(N)ncnc21)OCP(=O)(NC(C)(C)C(=O)OCC1CCCC1)NC(C)(C)C(=O)OCC1CCCC1` [Example 45, Bis(cyclopentylmethyl) 2,2′-(((((1-(6-amino-9H-purin-9-yl)propan-2-yl)oxy)methyl)phosphoryl)bis(azanediyl))(R)-bis(2-methylpropanoate)]: the pEC50 is 8.52.

As to `C[C@H](Cn1cnc2c(N)ncnc21)OCP(=O)(NC(C)(C)C(=O)OCC1CCCCC1)NC(C)(C)C(=O)OCC1CCCCC1` [Example 46, Bis(cyclohexylmethyl) 2,2′-(((((1-(6-amino-9H-purin-9-yl)propan-2-yl)oxy)methyl)phosphoryl)bis(azanediyl))(R)-bis(2-methylpropanoate)], the pEC50 is 8.30.

Turning to `C[C@H](Cn1cnc2c(N)ncnc21)OCP(=O)(NC(C)(C)C(=O)OC1CCC1)NC(C)(C)C(=O)OC1CCC1` [Example 47, Dicyclobutyl 2,2′-(((((1-(6-amino-9H-purin-9-yl)propan-2-yl)oxy)methyl)phosphoryl)bis(azanediyl))(R)-bis(2-methylpropanoate)], the pEC50 was 8.15.

The molecule `C[C@H](Cn1cnc2c(N)ncnc21)OCP(=O)(NC(C)(C)C(=O)OCC12CCC(CC1)CC2)NC(C)(C)C(=O)OCC12CCC(CC1)CC2` [Example 48, Bis(bicyclo[2.2.2]octan-1-ylmethyl) 2,2′-(((((1-(6-amino-9H-purin-9-yl)propan-2-yl)oxy)methyl)phosphoryl)bis(azanediyl))(R)-bis(2-methylpropanoate)] gave a pEC50 of 8.22.

In turn, `CCC1(CC)CC(OC(=O)C(C)(C)NP(=O)(CO[C@H](C)Cn2cnc3c(N)ncnc32)NC(C)(C)C(=O)OC2CC(CC)(CC)C2)C1` [Example 49, Bis(3,3-diethylcyclobutyl) 2,2′-(((((1-(6-amino-9H-purin-9-yl)propan-2-yl)oxy)methyl)phosphoryl)bis(azanediyl))(R)-bis(2-methylpropanoate)] had a pEC50 of 8.30.

`C[C@H](Cn1cnc2c(N)ncnc21)OCP(=O)(NC(C)(C)C(=O)OCC1CC2(CCC2)C1)NC(C)(C)C(=O)OCC1CC2(CCC2)C1` (stereo partly drawn) [Example 50, Bis(spiro[3.3]heptan-2-ylmethyl) 2,2′-(((((1-(6-amino-9H-purin-9-yl)propan-2-yl)oxy)methyl)phosphoryl)bis(azanediyl))(R)-bis(2-methylpropanoate)] showed a pEC50 of 8.15.

For the molecule `C[C@H](Cn1cnc2c(N)ncnc21)OCP(=O)(NC(C)(C)C(=O)O[C@H]1C[C@@H](C(C)(C)C)C1)NC(C)(C)C(=O)O[C@H]1C[C@@H](C(C)(C)C)C1` [Example 51, Bis((1S,3S)-3-(tert-butyl)cyclobutyl) 2,2′-((((((R)-1-(6-amino-9H-purin-9-yl)propan-2-yl)oxy)methyl)phosphoryl)bis(azanediyl))bis(2-methylpropanoate)], the pEC50 is 8.10.

Molecule `C[C@H](Cn1cnc2c(N)ncnc21)OCP(=O)(NC(C)(C)C(=O)O[C@H]1C[C@H](C(C)(C)C)C1)NC(C)(C)C(=O)O[C@H]1C[C@H](C(C)(C)C)C1` [Example 52, Bis((1R,3R)-3-(tert-butyl)cyclobutyl) 2,2′-((((((R)-1-(6-amino-9H-purin-9-yl)propan-2-yl)oxy)methyl)phosphoryl)bis(azanediyl))bis(2-methylpropanoate)] gave a pEC50 of 8.10.
